{"source": "patent US10493046B2", "about": "“5-hydroxytryptamine 1B receptor-stimulating agent for use as a promoter of satellite cells self-renewal and/or differentiation” (INSTITUT PASTEUR, priority 2015, dated 2019)", "format_in_all_cases": "in vivo, mouse", "key": {"vessels": {"system": "vessels", "experiment": "Vessel number in tibialis anterior of treated mice (Flk1GFP/+ or CD31 immunostaining)", "experimental": "(§1) Immunostaining was performed on cryosections fixed with 4% paraformaldehyde (PFA EMS#15710) in cold PBS, permeabilized with 0.5% Triton X-100 20 min at room temperature, washed, and blocked with 10% BSA for 30 min. Sections were incubated with primary antibodies overnight at 4° C. (see Table 1 below) and with Alexa-conjugated secondary antibodies 1/250 and Hoechst for 45 minutes. Sections were then analysed using an automated axioscan (Zeiss) or inverted Observer.Z1 Apotome (Zeiss). For apoptosis assessment, cells were collected in 2% serum, spun on polyD-lysine (Sigma-Aldrich#P6407), and immediately fixed with PFA 4%.\nThroughout the study, focus was made on the tibialis anterior (TA). In skeletal muscle, SC are central for muscle repair. […] SC are localized close to capillaries and angiogenesis is known to be crucial for muscle repair SC survival with cellular interplays between vessel cells and SC. The number of vessels was therefore quantified. In control Flk1^GFP/+ mouse (placebo), the number of vessels was of 870±213.1 vessels per mm^2 and increased after 3 weeks of I.P treatment (1103±110.2 vessels per mm^2), and even more after 6 weeks (1384±175.3 vessels per mm^2, p=0.008) (FIG. 2e). Neovessels presented with normal histological appearance associating a basal lamina and a permeable lumen sometimes containing red blood cells. […] 841±137 CD31+ cells per mm^2 were counted in the placebo-treated mice vs. 2260±361 CD31+ cells per mm^2 in the fluoxetine-treated mice, p=0.008 (FIG. 2t-v), confirming the previous observation.\nIn order to investigate the effect of vortioxetine on vessels number, intra peritoneal (I.P) administration of 20 mg/kg of vortioxetine was performed for either 12 days, 3 or 6 weeks to C57Bl/6 mice (FIG. 10a). The number of CD31+ cells was counted by immunostaining. The number of vessels in the placebo is (863.5±115.6 vessels per mm^2) and increases after 12 days of I.P treatment (2274±926 vessels per mm^2, p=0.03), and even more after 3 weeks (2847±705 vessels per mm^2, p=0.02) (FIG. 10b). However, there was no statistically significant differences between 12 days and 3 weeks of treatment (p=0.49). Neovessels display a normal histological appearance associated with a basal lamina and a permeable lumen sometimes containing red blood cells. The daily administration of vortioxetine IP might cause unwanted peritoneal inflammation that could interfere with angiogenesis since inflammation and neovascularization are intertwined in some models. Vortioxetine was therefore administered per os (P.O) for 12 days: a similar increase in the number of vessels was observed (2451±595 vessels per mm^2 p=0.028, FIG. 10c). To further confirm those results, vortioxetine will be administered to Flk1^GFP/+ mice P.O and I.P for 12 days, and an ex vivo Matrigel angiogenesis assay and plasma from vortioxetine treated mice will be used on HUVEC (endothelial cells)."}, "Tibialis anterior": {"system": "Tibialis anterior", "experiment": "Muscle regeneration after notexin injury of tibialis anterior", "experimental": "Animals were anesthetized with ketamine (Imalgene1000 100 mg/Kg Merial) and Xylazine (Rompun2% 20 mg/Kg Bayer) prior to injury. Animals were hydrated and treated with analgesic (Buprenorphin Axience 0.3 mg/kg) twice a day for 4 d following injury. For the injury, mice were anesthetized as previously described and 10 μl of 12.5 μg/ml Notexin (Lotaxan) was injected in the Tibialis anterior. All protocols were reviewed by the Institut Pasteur, the competent authority, for compliance with the French and European regulations on Animal Welfare and with Public Health Service recommendations. This project has been reviewed and approved (#2013-0044) by the Institut Pasteur ethic committee (C2EA 89-CETEA).\n(§2) Tibialis anterior (TA) was carefully dissected and snap frozen in liquid-nitrogen-cooled isopentane for a few minutes and stored at −80° C. prior to cryosectioning (10 μm sections). Sections were kept at room temperature overnight before staining. Sections were then rehydrated in PBS for 10 minutes and fixed in 10% formalin for 3 minutes. The sections were then routinely stained with haematoxylin and eosin (HE) using an automated stain machine or manually with red sirius.\nas §1\nFor image analysis (fibrosis quantification), ImageJ 1.46r software was using between 10 different photos randomly taken per section and 3 sections minimum per experimental group. The pictures were converted in a binary image and the pixel values then collected. For fibre size, the sections were immunostained with rabbit anti Laminin (Sigma-Aldrich #L9393) diluted at 1/200, overnight at 4° C. Secondary Donkey ant Rabbit 488 (DL488 JacksonImmuno #711486152) were used at 1/200 45 minutes at room temperature. The fibre perimeter was done automatically by using Pixcavator® software."}, "Mdx mice": {"system": "Mdx mice", "experiment": "Mdx mice (Duchenne muscular dystrophy model), muscle histology", "experimental": "as §2, §1\nThe fiber size was also overall bigger in Mdx treated-animals (4.241±0.9 pixels in treated vs. 3.192±0.3 in placebo p=0.051) (FIG. 8b). […] The number of vessels increased in the treated mice (1459±327 vessels per mm^2) when compared to the placebo (942.4±113 vessels […], p=0.008) (FIG. 8e). […] This observation is in line with the decreased infiltration of inflammatory cells observed in the muscle (9.6±3.7 Gr1+ cells observed per section in the placebo vs. 4±2.4 Gr1+ cells in the treated mice p=0.04) (FIG. 8i)."}, "satellite cells": {"system": "satellite cells", "experiment": "Satellite cell (SC) number in tibialis anterior of treated mice (histological count or FACS cytometry)", "details": "for Number of SC: Tg:Pax7nGFP mice"}, "[1]": {"details": "notexin injury after fluoxetine treatment"}, "[2]": {"details": "fluoxetine P.O. 6 weeks, Mdx mice"}}}
{"compound": "CNCCC(Oc1ccc(C(F)(F)F)cc1)c1ccccc1", "note": "(centres unmarked) [fluoxetine]", "values": [{"measurement": "Number of vessels", "setting": "vessels; fluoxetine 18 mg/kg I.P, 3 weeks, Flk1GFP/+ mouse", "value": "1103±110.2", "unit": "vessels per mm^2"}, {"measurement": "Number of vessels", "setting": "vessels; fluoxetine 18 mg/kg I.P, 6 weeks, Flk1GFP/+ mouse", "value": "1384±175.3", "unit": "vessels per mm^2"}, {"measurement": "Number of vessels", "setting": "vessels; fluoxetine P.O 6 weeks and PBS in osmotic pump, Flk1GFP/+ mice", "value": "1949±576", "unit": "vessels per mm^2"}, {"measurement": "CD31+ cells on cryo-sectioned TA", "setting": "vessels; fluoxetine P.O, 6 weeks, C57Bl/6 mice", "value": "2260±361", "unit": "CD31+ cells per mm^2"}, {"measurement": "Number of vessels", "setting": "vessels; fluoxetine P.O, 6 weeks, Flk1GFP/+ mouse", "value": "1256±62.2", "unit": "vessels per mm^2"}, {"measurement": "Calcium deposits 14 days post-injury", "setting": "Tibialis anterior; [1]", "value": "3.2±3", "unit": "per mm^2"}, {"measurement": "Differentiating (Myogenin+) cells 4 days post-injury vs placebo", "setting": "Tibialis anterior; [1]", "value": "more cells were already differentiating"}, {"measurement": "Endomysial fibrosis 14 days post-injury", "setting": "Tibialis anterior; [1]", "value": "2.2±0.7 % of total muscle area"}, {"measurement": "F4/80 inflammatory cells 14 days post-injury", "setting": "Tibialis anterior; [1]", "value": "4.7±2.7", "unit": "cells per section"}, {"measurement": "Gr1+ inflammatory cells 14 days post-injury", "setting": "Tibialis anterior; [1]", "value": "4.1±2.6", "unit": "cells per section"}, {"measurement": "Number of fibers 14 days post-injury vs placebo", "setting": "Tibialis anterior; [1]", "value": "remained the same"}, {"measurement": "Regenerating fiber size 14 days post-injury", "setting": "Tibialis anterior; [1]", "value": "129±12.6", "unit": "μm^2"}, {"measurement": "Number of SC 4 days post-injury", "setting": "Tibialis anterior; notexin injury after fluoxetine treatment, Tg:Pax7nGFP mice", "value": "459±283", "unit": "per mm^2"}, {"measurement": "Number of vessels 28 days post-injury vs placebo", "setting": "Tibialis anterior; notexin injury after fluoxetine treatment, p=0.036", "value": "higher"}, {"measurement": "Number of SC 28 days post-injury vs placebo", "setting": "Tibialis anterior; notexin injury after fluoxetine treatment, p=0.076", "value": "higher"}, {"measurement": "Number of SC per TA after 3 rounds of injury", "setting": "Tibialis anterior; several rounds of injury after fluoxetine treatment", "value": "remained constant"}, {"measurement": "Fiber size", "setting": "Mdx mice; [2]", "value": "4.241±0.9", "unit": "pixels"}, {"measurement": "Foci of necrotic fiber (necrotic area)", "setting": "Mdx mice; [2]", "value": "2890 ± 803", "unit": "µm²"}, {"measurement": "Gr1+ cells in the muscle", "setting": "Mdx mice; [2]", "value": "4±2.4", "unit": "cells per section"}, {"measurement": "Number of cycling satellite cells vs placebo", "setting": "Mdx mice; [2]", "value": "decreased"}, {"measurement": "Number of regenerating foci vs placebo", "setting": "Mdx mice; [2]", "value": "decreased"}, {"measurement": "Number of vessels", "setting": "Mdx mice; [2]", "value": "1459±327", "unit": "vessels per mm^2"}, {"measurement": "Number of SC by histological count", "setting": "satellite cells; fluoxetine 18 mg/kg, tibialis anterior, TgPax7nGFP mouse", "value": "16.3±5.4", "unit": "SC per mm^2"}, {"measurement": "Number of SC", "setting": "satellite cells; fluoxetine P.O 6 weeks and PBS in osmotic pump", "value": "7283±2325", "unit": "SC per TA"}]}
{"compound": "COc1ccc(NC(=O)c2ccc(-c3ccc(-c4noc(C)n4)cc3C)cc2)cc1N1CCN(C)CC1", "note": "[GR127935]", "values": [{"measurement": "Number of vessels", "setting": "vessels; GR127935 in osmotic pump together with fluoxetine P.O 6 weeks, Flk1GFP/+ mice", "value": "1028±173", "unit": "vessels per mm^2"}, {"measurement": "Effect of the antagonist on the beneficial effects of fluoxetine after injury", "setting": "Tibialis anterior; antagonist together with fluoxetine, SC, differentiating cells, fiber size, calcium deposits, fibrosis, Gr1 and F4/80 cells", "value": "suppressed the beneficial effects of fluoxetine treatment"}, {"measurement": "Effect of GR127935 on the beneficial effects of vortioxetine after injury", "setting": "Tibialis anterior; vortioxetine 12 days-treatment plus GR127935, SC, differentiating cells, fiber size, calcium deposits, fibrosis, Gr1 and F4/80 cells", "value": "repressed the beneficial effects of the vortioxetine 12 days-treatment"}, {"measurement": "Beneficial effects of fluoxetine when co-treated with 5-HT1B inhibitor", "setting": "Mdx mice; Mdx mice treated with fluoxetine and a 5-HT1B inhibitor", "value": "the beneficial effects were lost"}, {"measurement": "Number of SC", "setting": "satellite cells; GR127935 in osmotic pump together with fluoxetine P.O 6 weeks", "value": "4674±1414", "unit": "SC per TA"}]}
